How the values were obtained:
[1] = test system: experimental autoimmune encephalomyelitis; details: animal model of multiple sclerosis; cited from earlier work
GIVA cPLA2 = target: T1, GIVA cPLA2 (Homo sapiens, UniProt P47712); assay: Mixed micelle-based; format: biochemical; details: for inhibition at 0.091 mole fraction: read-out: GIVA cPLA2 % Inhibition; for times more potent for GVIA iPLA2 than for GIVA cPLA2: ratio of XI(50) values
T1 sequence (P47712 1-749): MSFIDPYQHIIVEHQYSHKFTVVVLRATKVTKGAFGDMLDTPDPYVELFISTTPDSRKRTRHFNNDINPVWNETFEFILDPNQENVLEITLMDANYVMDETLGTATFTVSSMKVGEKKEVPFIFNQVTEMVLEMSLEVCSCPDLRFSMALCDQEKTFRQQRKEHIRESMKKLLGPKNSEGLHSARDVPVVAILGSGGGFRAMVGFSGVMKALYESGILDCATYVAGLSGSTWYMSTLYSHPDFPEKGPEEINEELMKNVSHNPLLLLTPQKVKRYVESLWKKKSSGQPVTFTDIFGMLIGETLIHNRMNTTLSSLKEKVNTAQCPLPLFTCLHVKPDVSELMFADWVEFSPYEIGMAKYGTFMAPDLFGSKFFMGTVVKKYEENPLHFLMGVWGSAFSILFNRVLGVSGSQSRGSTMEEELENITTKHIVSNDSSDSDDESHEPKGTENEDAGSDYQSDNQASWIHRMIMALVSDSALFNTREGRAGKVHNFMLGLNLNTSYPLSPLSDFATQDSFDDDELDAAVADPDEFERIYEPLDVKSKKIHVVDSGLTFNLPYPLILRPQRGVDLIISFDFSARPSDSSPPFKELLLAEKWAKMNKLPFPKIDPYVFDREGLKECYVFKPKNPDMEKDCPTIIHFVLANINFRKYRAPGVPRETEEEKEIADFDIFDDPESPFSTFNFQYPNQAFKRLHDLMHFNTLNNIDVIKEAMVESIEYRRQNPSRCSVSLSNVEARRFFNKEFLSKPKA

human GVIA iPLA2 = target: T2, human GVIA iPLA2 (Homo sapiens, UniProt O60733); details: previous mixed micelle assay with DPPC substrate; cited from earlier work
T2 sequence (O60733 1-806): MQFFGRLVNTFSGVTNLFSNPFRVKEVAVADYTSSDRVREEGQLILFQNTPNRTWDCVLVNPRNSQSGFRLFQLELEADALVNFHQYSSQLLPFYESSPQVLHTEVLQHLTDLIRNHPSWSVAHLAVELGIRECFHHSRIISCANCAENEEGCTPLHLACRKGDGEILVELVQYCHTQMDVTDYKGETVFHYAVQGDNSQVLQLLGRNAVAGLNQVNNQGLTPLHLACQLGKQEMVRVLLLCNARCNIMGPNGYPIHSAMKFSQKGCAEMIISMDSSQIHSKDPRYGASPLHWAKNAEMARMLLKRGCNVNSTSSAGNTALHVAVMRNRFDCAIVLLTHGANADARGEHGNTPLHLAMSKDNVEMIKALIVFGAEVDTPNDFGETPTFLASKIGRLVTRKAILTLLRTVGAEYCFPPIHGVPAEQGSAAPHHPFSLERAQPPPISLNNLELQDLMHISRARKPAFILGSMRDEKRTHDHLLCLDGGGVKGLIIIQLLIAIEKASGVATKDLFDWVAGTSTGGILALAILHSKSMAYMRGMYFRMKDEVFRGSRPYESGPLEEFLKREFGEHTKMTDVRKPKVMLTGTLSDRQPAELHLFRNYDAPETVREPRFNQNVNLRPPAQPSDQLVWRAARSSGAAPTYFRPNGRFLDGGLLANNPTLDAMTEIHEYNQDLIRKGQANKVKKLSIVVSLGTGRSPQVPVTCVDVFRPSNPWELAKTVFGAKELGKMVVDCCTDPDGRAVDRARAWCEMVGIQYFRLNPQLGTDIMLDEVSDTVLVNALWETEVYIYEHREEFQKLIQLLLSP

GV sPLA2 = target: T3, GV sPLA2 (Homo sapiens, UniProt P39877); assay: Mixed micelle-based; format: biochemical; details: lower bound from % inhibition at 0.091 mole fraction
T3 sequence (P39877 21-138): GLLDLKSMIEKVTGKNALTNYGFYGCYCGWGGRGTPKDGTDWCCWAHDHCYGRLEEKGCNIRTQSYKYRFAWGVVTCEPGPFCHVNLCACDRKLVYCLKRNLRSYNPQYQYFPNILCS

Compound	inhibition at 0.091 mole fraction (GIVA cPLA2)	times more potent for GVIA iPLA2 than for GV sPLA2 (GV sPLA2)	times more potent for GVIA iPLA2 than for GIVA cPLA2 (GIVA cPLA2)	other results
O=C(CCCCc1ccccc1)C(F)(F)C(F)(F)F [compound 2, 1,1,1,2,2-pentafluoro-7-phenylheptan-3-one]	< 25%	–	–	therapeutic effect in experimental autoimmune encephalomyelitis [1]: beneficial therapeutic effect; GVIA iPLA2 XI(50) determined previously (human GVIA iPLA2): 0.0073 mole fraction
O=C(CCCCc1ccc2ccccc2c1)C(F)(F)F [12g, 1,1,1-Trifluoro-6-(naphthalen-2-yl)hexan-2-one]	–	> 455 times	–	GIVA cPLA2 XI(50) (GIVA cPLA2; mole fraction of inhibitor in total substrate interface giving 50% inhibition): 0.039 ± 0.001 mole fraction
O=C(CCCCc1ccc2ccccc2c1)C(F)(F)C(F)(F)C(F)(F)F [12i, 1,1,1,2,2,3,3-Heptafluoro-8-(naphthalen-2-yl)octan-4-one]	–	at least 90 times	at least 90 times	–
1,1,1,2,2,3,3,5-octafluoro-7-phenyloctan-4-one [compound 25]	–	> 180 times	76 times	–
O=C(CCCCCc1ccccc1)C(F)(F)C(F)(F)C(F)(F)F [6b, 1,1,1,2,2,3,3-Heptafluoro-9-phenylnonan-4-one]	< 25%	–	–	–

Source: paper PMC2865582 (Journal of medicinal chemistry, 2010)
